Test results as given in PMC12586182 (Frontiers in Oncology, 2025).
pIC50: −log10 of the molar value.

Tests used:
PDHK4 = target: T1, PDHK4 (Homo sapiens, UniProt Q16654); assay: Kinase panel profiling at 1 µmol/L (mobility shift assay, Carna); type: biochemical; conditions: 1 µmol/L of BTK inhibitor
T1 construct: purchased Carna Biosciences

TXK = target: T2, TXK (Homo sapiens, UniProt P42681); assay: as above; type: biochemical; conditions: 1 µmol/L of BTK inhibitor
T2 construct: purchased Carna Biosciences
T2 sequence (P42681 1-527): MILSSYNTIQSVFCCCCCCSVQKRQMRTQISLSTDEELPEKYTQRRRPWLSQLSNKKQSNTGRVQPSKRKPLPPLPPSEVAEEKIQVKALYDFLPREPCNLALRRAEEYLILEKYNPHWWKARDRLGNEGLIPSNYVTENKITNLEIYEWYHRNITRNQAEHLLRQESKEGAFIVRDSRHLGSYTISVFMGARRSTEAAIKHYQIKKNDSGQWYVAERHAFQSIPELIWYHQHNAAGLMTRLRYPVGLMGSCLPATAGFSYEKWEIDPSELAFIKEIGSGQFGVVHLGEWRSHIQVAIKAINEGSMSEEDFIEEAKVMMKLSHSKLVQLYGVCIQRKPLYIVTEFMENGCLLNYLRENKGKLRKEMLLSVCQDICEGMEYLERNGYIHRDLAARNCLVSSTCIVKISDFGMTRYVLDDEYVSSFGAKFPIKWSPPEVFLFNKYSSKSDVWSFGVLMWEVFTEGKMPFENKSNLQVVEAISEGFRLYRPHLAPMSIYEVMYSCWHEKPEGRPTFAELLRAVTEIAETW

NEK2 = target: T3, NEK2 (Homo sapiens, UniProt P51955); assay: as above; type: biochemical; conditions: 1 µmol/L of BTK inhibitor
T3 construct: purchased Carna Biosciences
T3 sequence (P51955 1-445): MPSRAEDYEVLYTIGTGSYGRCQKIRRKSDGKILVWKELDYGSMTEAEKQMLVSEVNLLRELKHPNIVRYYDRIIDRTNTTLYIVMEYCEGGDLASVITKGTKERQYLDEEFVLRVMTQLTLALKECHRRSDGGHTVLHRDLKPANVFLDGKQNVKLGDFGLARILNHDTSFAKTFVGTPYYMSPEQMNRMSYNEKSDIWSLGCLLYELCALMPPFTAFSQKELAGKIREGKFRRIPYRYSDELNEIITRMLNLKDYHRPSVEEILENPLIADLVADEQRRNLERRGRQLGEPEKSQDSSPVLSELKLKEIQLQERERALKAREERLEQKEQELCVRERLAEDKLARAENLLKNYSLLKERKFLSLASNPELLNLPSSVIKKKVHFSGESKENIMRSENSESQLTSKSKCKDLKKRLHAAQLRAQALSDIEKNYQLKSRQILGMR

JAK1 = target: T4, JAK1 (Homo sapiens, UniProt P23458); assay: as above; type: biochemical; conditions: 1 µmol/L of BTK inhibitor
T4 construct: purchased Carna Biosciences

NEK4 = target: T5, NEK4 (Homo sapiens, UniProt P51957); assay: as above; type: biochemical; conditions: 1 µmol/L of BTK inhibitor
T5 construct: purchased Carna Biosciences

AKT1 = target: T6, AKT1 (Homo sapiens, UniProt P31749); assay: as above; type: biochemical; conditions: 1 µmol/L of BTK inhibitor
T6 construct: purchased Carna Biosciences

TYRO3 = target: T7, TYRO3 (Homo sapiens, UniProt Q06418); assay: as above; type: biochemical; conditions: 1 µmol/L of BTK inhibitor
T7 construct: purchased Carna Biosciences
T7 sequence (Q06418 41-890): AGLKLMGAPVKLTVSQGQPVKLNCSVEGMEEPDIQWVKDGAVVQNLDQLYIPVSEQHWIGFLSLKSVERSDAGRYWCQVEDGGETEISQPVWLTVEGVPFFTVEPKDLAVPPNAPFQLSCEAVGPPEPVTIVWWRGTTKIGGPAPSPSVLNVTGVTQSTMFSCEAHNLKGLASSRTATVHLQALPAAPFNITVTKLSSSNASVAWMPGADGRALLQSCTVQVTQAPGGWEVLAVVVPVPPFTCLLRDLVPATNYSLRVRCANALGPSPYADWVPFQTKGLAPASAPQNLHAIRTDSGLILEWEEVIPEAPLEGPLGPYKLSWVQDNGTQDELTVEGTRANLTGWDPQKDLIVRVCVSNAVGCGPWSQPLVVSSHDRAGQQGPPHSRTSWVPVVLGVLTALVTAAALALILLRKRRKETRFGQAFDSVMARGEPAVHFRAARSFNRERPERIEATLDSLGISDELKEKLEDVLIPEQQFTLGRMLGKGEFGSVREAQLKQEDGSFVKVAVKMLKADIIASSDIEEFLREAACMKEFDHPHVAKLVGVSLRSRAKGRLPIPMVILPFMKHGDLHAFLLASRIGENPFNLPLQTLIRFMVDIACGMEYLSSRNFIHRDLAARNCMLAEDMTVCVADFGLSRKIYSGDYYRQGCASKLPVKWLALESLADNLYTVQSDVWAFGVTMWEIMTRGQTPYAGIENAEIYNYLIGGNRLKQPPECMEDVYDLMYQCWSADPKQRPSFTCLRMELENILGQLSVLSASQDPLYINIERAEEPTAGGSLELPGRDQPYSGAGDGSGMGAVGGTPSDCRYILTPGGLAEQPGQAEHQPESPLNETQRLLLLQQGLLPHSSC

PKACα = target: T8, PKACα (Homo sapiens, UniProt P17612); assay: as above; type: biochemical; conditions: 1 µmol/L of BTK inhibitor
T8 construct: purchased Carna Biosciences

EPHA7 = target: T9, EPHA7 (Homo sapiens, UniProt Q15375); assay: as above; type: biochemical; conditions: 1 µmol/L of BTK inhibitor
T9 construct: purchased Carna Biosciences

ACK = target: T10, ACK (Homo sapiens, UniProt Q07912); assay: as above; type: biochemical; conditions: 1 µmol/L of BTK inhibitor
T10 construct: purchased Carna Biosciences

FGFR1 = FGFR1 (Homo sapiens, UniProt P11362); assay: Kinase enzyme activity assay (mobility shift assay, Carna); conditions: for Percentage inhibition of kinase enzyme activity: FGFR1, 1 µmol/L of BTK inhibitor
TSSK3 = target: T11, TSSK3 (Homo sapiens, UniProt Q96PN8); assay: Kinase panel profiling at 1 µmol/L (mobility shift assay, Carna); type: biochemical; conditions: 1 µmol/L of BTK inhibitor
T11 construct: purchased Carna Biosciences
T11 sequence (Q96PN8 1-268): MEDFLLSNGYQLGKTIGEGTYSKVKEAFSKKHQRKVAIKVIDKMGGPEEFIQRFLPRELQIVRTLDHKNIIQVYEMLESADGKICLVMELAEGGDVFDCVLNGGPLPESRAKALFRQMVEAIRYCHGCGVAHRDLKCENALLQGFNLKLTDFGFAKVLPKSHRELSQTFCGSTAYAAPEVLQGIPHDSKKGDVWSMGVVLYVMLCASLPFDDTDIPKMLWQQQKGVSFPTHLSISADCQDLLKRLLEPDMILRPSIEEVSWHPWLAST

Chain of FGFR1 (P11362 22-822): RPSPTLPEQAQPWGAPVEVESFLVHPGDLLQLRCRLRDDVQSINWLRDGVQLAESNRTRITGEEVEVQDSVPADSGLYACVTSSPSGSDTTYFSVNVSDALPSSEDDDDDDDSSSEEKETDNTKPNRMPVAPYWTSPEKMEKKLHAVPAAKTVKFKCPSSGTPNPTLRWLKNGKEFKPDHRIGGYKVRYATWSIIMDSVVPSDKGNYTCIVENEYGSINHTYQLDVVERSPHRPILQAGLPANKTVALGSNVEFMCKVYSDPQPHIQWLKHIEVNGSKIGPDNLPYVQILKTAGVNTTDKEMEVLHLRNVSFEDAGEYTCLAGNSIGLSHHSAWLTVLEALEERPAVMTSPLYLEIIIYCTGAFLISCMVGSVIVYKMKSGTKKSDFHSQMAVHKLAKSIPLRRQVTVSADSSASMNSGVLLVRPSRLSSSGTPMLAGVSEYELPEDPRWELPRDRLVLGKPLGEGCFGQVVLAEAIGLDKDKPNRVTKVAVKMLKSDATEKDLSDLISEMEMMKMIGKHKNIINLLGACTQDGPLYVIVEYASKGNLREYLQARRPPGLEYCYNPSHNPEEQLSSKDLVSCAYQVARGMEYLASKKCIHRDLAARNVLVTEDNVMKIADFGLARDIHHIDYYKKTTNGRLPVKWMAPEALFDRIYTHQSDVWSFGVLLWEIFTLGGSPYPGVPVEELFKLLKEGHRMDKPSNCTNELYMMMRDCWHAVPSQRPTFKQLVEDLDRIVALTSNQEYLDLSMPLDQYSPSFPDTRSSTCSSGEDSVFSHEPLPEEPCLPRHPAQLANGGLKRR
T5 sequence (P51957 whole entry): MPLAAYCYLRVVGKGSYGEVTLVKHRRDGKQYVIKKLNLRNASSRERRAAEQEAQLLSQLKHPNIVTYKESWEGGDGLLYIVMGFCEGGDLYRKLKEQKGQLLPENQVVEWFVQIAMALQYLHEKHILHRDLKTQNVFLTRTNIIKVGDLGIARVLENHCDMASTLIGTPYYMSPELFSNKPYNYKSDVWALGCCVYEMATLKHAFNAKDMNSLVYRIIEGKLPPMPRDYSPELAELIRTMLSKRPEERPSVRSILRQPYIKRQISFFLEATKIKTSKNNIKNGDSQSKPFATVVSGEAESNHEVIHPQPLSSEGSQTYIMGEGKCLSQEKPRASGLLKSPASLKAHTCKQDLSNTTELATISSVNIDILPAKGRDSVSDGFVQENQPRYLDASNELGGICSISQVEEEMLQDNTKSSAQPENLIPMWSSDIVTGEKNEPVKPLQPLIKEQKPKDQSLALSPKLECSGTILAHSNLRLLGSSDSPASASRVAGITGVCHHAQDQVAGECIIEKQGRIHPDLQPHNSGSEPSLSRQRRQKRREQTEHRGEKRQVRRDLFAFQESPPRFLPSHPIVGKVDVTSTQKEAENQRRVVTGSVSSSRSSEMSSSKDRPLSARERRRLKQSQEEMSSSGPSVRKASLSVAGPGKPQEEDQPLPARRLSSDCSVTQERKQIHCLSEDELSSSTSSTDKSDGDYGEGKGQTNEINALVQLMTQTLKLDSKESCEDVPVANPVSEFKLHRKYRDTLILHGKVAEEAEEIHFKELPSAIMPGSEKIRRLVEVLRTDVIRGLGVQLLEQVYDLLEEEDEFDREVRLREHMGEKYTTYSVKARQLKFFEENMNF
T10 sequence (Q07912 whole entry): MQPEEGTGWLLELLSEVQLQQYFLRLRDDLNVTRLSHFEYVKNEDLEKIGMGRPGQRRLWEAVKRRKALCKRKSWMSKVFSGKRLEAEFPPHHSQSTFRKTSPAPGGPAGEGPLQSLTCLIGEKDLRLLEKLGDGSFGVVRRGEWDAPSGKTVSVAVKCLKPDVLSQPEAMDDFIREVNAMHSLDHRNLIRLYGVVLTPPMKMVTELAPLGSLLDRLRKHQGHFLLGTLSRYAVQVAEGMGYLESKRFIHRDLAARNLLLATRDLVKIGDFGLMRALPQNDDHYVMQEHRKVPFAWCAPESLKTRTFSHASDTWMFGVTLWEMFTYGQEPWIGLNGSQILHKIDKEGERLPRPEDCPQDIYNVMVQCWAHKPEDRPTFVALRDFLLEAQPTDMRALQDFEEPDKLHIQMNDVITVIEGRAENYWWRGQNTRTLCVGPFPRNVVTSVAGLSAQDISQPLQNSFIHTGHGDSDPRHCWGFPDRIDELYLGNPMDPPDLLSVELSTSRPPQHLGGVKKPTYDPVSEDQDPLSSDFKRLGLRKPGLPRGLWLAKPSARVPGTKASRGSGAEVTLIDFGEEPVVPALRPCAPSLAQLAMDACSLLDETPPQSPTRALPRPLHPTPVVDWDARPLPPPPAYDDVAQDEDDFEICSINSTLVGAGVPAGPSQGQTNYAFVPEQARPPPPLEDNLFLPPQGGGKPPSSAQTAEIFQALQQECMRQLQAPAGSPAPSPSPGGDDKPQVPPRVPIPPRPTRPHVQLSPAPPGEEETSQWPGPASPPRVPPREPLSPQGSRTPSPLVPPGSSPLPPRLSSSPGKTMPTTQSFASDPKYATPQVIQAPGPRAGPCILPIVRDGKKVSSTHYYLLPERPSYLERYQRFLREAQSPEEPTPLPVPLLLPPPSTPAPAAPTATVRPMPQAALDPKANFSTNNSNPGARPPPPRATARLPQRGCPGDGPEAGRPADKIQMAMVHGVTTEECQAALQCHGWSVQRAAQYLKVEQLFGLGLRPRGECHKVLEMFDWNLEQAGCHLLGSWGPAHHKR
T9 sequence (Q15375 28-998): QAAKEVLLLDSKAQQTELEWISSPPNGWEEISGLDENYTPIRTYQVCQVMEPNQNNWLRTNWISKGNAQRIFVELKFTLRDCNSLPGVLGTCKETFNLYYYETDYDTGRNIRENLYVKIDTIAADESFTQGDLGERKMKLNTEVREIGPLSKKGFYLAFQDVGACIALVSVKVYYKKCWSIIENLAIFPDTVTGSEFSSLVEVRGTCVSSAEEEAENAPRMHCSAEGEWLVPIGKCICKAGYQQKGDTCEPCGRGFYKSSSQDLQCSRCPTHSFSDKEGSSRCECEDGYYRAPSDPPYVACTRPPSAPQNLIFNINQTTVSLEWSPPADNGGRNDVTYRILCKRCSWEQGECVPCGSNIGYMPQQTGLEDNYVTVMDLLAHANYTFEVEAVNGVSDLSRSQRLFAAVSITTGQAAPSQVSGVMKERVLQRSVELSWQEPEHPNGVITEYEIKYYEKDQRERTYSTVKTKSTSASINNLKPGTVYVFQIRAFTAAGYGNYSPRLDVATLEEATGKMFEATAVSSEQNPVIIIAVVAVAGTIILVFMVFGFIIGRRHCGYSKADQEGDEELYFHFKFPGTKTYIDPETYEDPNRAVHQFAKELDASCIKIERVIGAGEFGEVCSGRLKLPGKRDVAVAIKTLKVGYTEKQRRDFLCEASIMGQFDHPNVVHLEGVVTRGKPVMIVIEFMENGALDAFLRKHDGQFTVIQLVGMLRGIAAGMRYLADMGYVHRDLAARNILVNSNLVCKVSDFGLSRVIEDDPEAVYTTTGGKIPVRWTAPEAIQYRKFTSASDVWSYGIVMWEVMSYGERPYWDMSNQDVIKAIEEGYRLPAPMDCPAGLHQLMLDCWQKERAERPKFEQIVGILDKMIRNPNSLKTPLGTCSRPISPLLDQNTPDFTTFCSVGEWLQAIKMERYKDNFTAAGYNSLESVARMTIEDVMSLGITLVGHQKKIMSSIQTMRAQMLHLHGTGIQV
T6 sequence (P31749 whole entry): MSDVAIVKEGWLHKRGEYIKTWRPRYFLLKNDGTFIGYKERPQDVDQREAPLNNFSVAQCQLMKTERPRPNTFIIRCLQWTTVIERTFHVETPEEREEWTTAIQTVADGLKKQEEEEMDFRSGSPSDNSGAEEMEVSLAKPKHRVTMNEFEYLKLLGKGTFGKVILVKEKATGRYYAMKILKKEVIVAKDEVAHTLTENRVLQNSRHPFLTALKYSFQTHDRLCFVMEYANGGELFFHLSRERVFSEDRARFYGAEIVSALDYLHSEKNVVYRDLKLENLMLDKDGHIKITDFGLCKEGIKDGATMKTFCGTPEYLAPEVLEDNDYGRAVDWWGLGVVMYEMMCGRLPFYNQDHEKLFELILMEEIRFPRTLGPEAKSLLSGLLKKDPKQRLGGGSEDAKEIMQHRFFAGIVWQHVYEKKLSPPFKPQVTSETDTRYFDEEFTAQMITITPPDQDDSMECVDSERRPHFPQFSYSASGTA
T1 sequence (Q16654 whole entry): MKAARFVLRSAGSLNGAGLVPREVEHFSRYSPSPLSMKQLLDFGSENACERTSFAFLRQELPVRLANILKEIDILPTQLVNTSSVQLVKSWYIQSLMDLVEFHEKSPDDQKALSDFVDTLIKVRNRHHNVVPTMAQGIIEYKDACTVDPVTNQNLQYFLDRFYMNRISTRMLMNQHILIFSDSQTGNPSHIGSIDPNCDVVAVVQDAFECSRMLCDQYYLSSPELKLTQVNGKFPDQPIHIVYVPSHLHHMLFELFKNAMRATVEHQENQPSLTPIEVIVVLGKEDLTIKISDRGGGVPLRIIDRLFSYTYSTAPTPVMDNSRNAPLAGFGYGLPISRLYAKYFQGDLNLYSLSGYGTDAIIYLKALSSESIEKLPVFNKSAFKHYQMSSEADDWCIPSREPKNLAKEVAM

Row | Structure (SMILES) | Percentage inhibition of kinase enzyme activity (PDHK4) [%] | Percentage inhibition of kinase enzyme activity (TXK) [%] | Percentage inhibition of kinase enzyme activity (NEK2) [%] | Percentage inhibition of kinase enzyme activity (JAK1) [%] | Percentage inhibition of kinase enzyme activity (NEK4) [%] | Percentage inhibition of kinase enzyme activity (AKT1) [%] | Percentage inhibition of kinase enzyme activity (TYRO3) [%] | Percentage inhibition of kinase enzyme activity (PKACα) [%] | Percentage inhibition of kinase enzyme activity (EPHA7) [%] | Percentage inhibition of kinase enzyme activity (ACK) [%] | Percentage inhibition of kinase enzyme activity (FGFR1) [%] | Percentage inhibition of kinase enzyme activity (TSSK3) [%] | pIC50 (FGFR1)
1 | CC#CC(=O)N1CCC[C@H]1c1nc(-c2ccc(C(=O)Nc3ccccn3)cc2)c2c(N)nccn12 [acalabrutinib] | 0.39 | 67.66 | -6.35 | -12.91 | -4.76 | -6.23 | 3.11 | -5.14 | -3.54 | 14.06 | -2.28 | -7.85 | 
2 | C=CC(=O)N1CCC[C@@H](n2nc(-c3ccc(Oc4ccccc4)cc3)c3c(N)ncnc32)C1 [ibrutinib] |  | 98.38 | 6.64 | -9.54 | 4.65 | -9.41 | 11.95 | -10.78 | 6.99 | 72.74 | 70.87 | -3.87 | 
3 | O=C(c1ccc(Oc2ccccc2)cc1Cl)c1c[nH]c2ncnc(N[C@@H]3CC[C@@H](CO)OC3)c12 [nemtabrutinib] | -2.73 | 97.01 | 74.64 | 32.55 | 7.11 | -8.43 | 58.33 | 0.95 | 94.05 | 98.62 | 46.81 | 2.56 | 6.87
4 | COc1ccc(F)cc1C(=O)NCc1ccc(-c2nn([C@@H](C)C(F)(F)F)c(N)c2C(N)=O)cc1 [pirtobrutinib] | 3.76 | 43.03 | 2.00 | -2.12 | -3.18 | -12.80 | -3.18 | -26.62 | -9.86 | 13.05 | 3.30 | -1.40 | 
5 | C=CC(=O)N1CCC([C@@H]2CCNc3c(C(N)=O)c(-c4ccc(Oc5ccccc5)cc4)nn32)CC1 [zanubrutinib] |  | 89.43 |  | -0.37 | 0.95 |  |  |  | -7.84 |  | -5.28 |  | 
